Data: patent US20240122932A1, “Methods of Treating B-Cell Malignancy Using Bcl-2 Inhibitor” (BeiGene Switzerland GmbH, priority 2021, published 2024)

System: Toledo diffuse large B cell lymphoma (DLBCL) subcutaneous xenograft
Experiment: Toledo DLBCL subcutaneous xenograft model
Assay type: in vivo, NCG mice
Description: Toledo cells are of diffuse large B cell lymphoma (DLBCL) origin and were obtained from American Type Culture Collection (ATCC CRL-2631, Manassas, VA, DC, USA). Cells were grown in RPMI 1640 medium (Corning. Cat #10-040-CVR), supplemented with 10% (v/v) fetal bovine serum (Gibco, Cat #10099-141C), and 100 μg/mL of penicillin and streptomycin (Gibco, Cat #15140-122). Toledo cells were maintained as suspension cell cultures at 37° C. in a 5% CO2 atmosphere. Five to six-week-old female NCG mice were purchased from Gempharmatech of Information Technology Center. All animals were maintained under specific pathogen free (SPF) “full barrier” condition with free access to food and water. Mice were group-housed under a 12 h light:dark cycle (lights on at 08:00 h), at a temperature of 21-26° C. and 35-61% humidity in IVC cages (Lingyunboji (Beijing) Technology Co., Ltd.). Mice were fed with complete granulated feed with Co60 radiosterilization (Beijing Ke Ao Xie Li Feed Co., Ltd.).
On the day of implantation, Toledo cells were harvested and re-suspended with appropriate volume of ice cold DPBS and same volume of Matrigel (Corning, Cat #356237) to give a final concentration of 1.5×10^7 cells/mL. Re-suspended cells were placed on ice prior to inoculation. The right front flank region of each mouse was cleaned with 75% ethanol prior to cell inoculation. Each animal was injected subcutaneously with 3×10^6 cells in 200 μL of cell suspension in the right front flank via a 26-gauge needle. After implantation, primary tumor volume was measured in two dimensions using a caliper.
Transplanted animals were randomized into 10 groups with 10 mice per group on day 0 according to transplantation sequence and body weight. The groups consisted of vehicle group, 5, 15, 50 mg/kg of venetoclax with QD dosing, 5, 15, 50 mg/kg of Compound 1 with QD dosing, and 2.5, 7.5, 25 mg/kg of Compound 1 with BID dosing. Treatments were administered by oral gavage (p.o.) in a volume of 10 mL/kg body weight. Body weight was assessed immediately before dosing and volume dosed was adjusted accordingly.
Individual body weight was recorded twice weekly, with mice being monitored daily for clinical signs of toxicity for the duration of the study. Mice were euthanized using carbon dioxide when their tumor volume reached 2,000 mm^3, the tumor was ulcerated, or body weight loss exceeded 20%.
Tumor volume was calculated using the formula: V=0.5×(a×b^2) where a and b are the long and short diameters of the tumor, respectively. Tumor growth inhibition (TGI) was calculated using the following formula: % TGI=100×[1−(treatedt−treatedt0)/(vehiclet−vehiclet0)] (treated t=treated tumor volume at time t, treated t0=treated tumor volume at time 0, vehicle t=vehicle tumor volume at time t and vehicle t0=vehicle tumor volume at time 0)

SMILES | Mean Tumor volume (Day 31) (mm^3 ± SEM) (2.5 mg/kg BID × 31 p.o.) | TGI (Day 31) (2.5 mg/kg BID × 31 p.o.) | Mean Tumor volume (Day 31) (mm^3 ± SEM) (5 mg/kg QD × 31 p.o.) | TGI (Day 31) (5 mg/kg QD × 31 p.o.) | Mean Tumor volume (Day 31) (mm^3 ± SEM) (7.5 mg/kg BID × 31 p.o.) | TGI (Day 31) (7.5 mg/kg BID × 31 p.o.) | Mean Tumor volume (Day 31) (mm^3 ± SEM) (15 mg/kg QD × 31 p.o.) | TGI (Day 31) (15 mg/kg QD × 31 p.o.) | Mean Tumor volume (Day 31) (mm^3 ± SEM) (25 mg/kg BID × 31 p.o.) | TGI (Day 31) (25 mg/kg BID × 31 p.o.) | Mean Tumor volume (Day 31) (mm^3 ± SEM) (50 mg/kg QD × 31 p.o.) | TGI (Day 31) (50 mg/kg QD × 31 p.o.) | anti-tumor effects (in words) (2.5, 7.5, 25 mg/kg BID or 5, 15, 50 mg/kg QD, oral) | efficacy compared with venetoclax (same total daily doses of 5 and 15 mg/kg)
CC(C)c1ccccc1[C@@H]1CCCN1C1CC2(CCN(c3ccc(C(=O)NS(=O)(=O)c4ccc(NCC5CCC(C)(O)CC5)c([N+](=O)[O-])c4)c(Oc4cnc5[nH]ccc5c4)c3)CC2)C1 (stereo partly drawn) [Compound 1, 2-((1H-pyrrolo[2,3-b]pyridin-5-yl)oxy)-N-((4-((((1r,4r)-4-hydroxy-4-methylcyclohexyl)methyl)amino)-3-nitrophenyl)sulfonyl)-4-(2-((S)-2-(2-isopropylphenyl)pyrrolidin-1-yl)-7-azaspiro[3.5]nonan-7-yl)benzamide] | 515.7 ± 79.1 mm^3 | 70% | 679.3 ± 63.2 mm^3 | 60% | 230.5 ± 25.9 mm^3 | 86% | 267.4 ± 30.4 mm^3 | 84% | 182.5 ± 15.9 mm^3 | 89% | 214.8 ± 19.4 mm^3 | 87% | induced dose-dependent anti-tumor effects | significantly better efficacy when compared with venetoclax
CC1(C)CCC(CN2CCN(c3ccc(C(=O)NS(=O)(=O)c4ccc(NCC5CCOCC5)c([N+](=O)[O-])c4)c(Oc4cnc5[nH]ccc5c4)c3)CC2)=C(c2ccc(Cl)cc2)C1 [Venetoclax, reference compound] |  |  | 1256.5 ± 136.5 mm^3 | 26% |  |  | 847.8 ± 109.4 mm^3 | 50% |  |  | 258.3 ± 22.6 mm^3 | 85% |  | 
